From PubChem BioAssay (NCI)
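96-well plates; 48 h exposure; 5 concentrations. Endpoints by linear interpolation between flanking doses. Not reached: highest tested concentration assigned. At the GI50, growth is halved. TGI: total growth inhibition.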

How the values were obtained:
Experiment in all cases: DTP human tumour cell line panel, 48 h; in the data active means GI50 below about 0.43 µM; inactive means the rest
HT29 colon = system: HT29 colon
TK-10 renal = system: TK-10 renal
T-47D breast = system: T-47D breast
BT-549 breast = system: BT-549 breast
786-0 renal = system: 786-0 renal
DU-145 prostate = system: DU-145 prostate
NCI-H460 lung = system: NCI-H460 lung
IGROV1 ovarian = system: IGROV1 ovarian
SK-MEL-28 melanoma = system: SK-MEL-28 melanoma
SNB-19 CNS = system: SNB-19 CNS
A549 NSCLC = system: A549 NSCLC
U251 CNS = system: U251 CNS
HCT-116 colon = system: HCT-116 colon
NCI-H23 lung = system: NCI-H23 lung
CAKI-1 renal = system: CAKI-1 renal
HOP-62 NSCLC = system: HOP-62 NSCLC
MOLT-4 leukemia = system: MOLT-4 leukemia
NCI-H522 lung = system: NCI-H522 lung
CCRF-CEM leukemia = system: CCRF-CEM leukemia
HOP-92 NSCLC = system: HOP-92 NSCLC
MDA-MB-435 = system: MDA-MB-435
HL-60(TB) leukemia = system: HL-60(TB) leukemia
MDA-MB-231 breast = system: MDA-MB-231 breast
LOX IMVI melanoma = system: LOX IMVI melanoma
NCI/ADR-RES ovarian = system: NCI/ADR-RES ovarian
RXF 393 renal = system: RXF 393 renal
OVCAR-5 ovarian = system: OVCAR-5 ovarian
SW-620 colon = system: SW-620 colon
UO-31 renal = system: UO-31 renal
HCC-2998 colon = system: HCC-2998 colon
SF-295 CNS = system: SF-295 CNS
MCF7 breast = system: MCF7 breast
OVCAR-4 ovarian = system: OVCAR-4 ovarian
COLO 205 colon = system: COLO 205 colon
NCI-H226 lung = system: NCI-H226 lung
SF-268 CNS = system: SF-268 CNS
A498 renal = system: A498 renal
KM12 colon = system: KM12 colon
SN12C renal = system: SN12C renal
SK-MEL-2 melanoma = system: SK-MEL-2 melanoma
PC-3 prostate = system: PC-3 prostate
M14 melanoma = system: M14 melanoma
OVCAR-8 ovarian = system: OVCAR-8 ovarian
ACHN renal = system: ACHN renal
UACC-257 melanoma = system: UACC-257 melanoma
SNB-75 CNS = system: SNB-75 CNS
HCT-15 colon = system: HCT-15 colon
EKVX NSCLC = system: EKVX NSCLC
OVCAR-3 ovarian = system: OVCAR-3 ovarian
HS 578T breast = system: HS 578T breast
UACC-62 melanoma = system: UACC-62 melanoma
K-562 leukemia = system: K-562 leukemia
SR leukemia = system: SR leukemia
RPMI-8226 leukemia = system: RPMI-8226 leukemia
MALME-3M melanoma = system: MALME-3M melanoma
SK-OV-3 ovarian = system: SK-OV-3 ovarian

COc1ccc(CNS(=O)(=O)/N=C2\NC(=O)NC2=C(Cl)Cl)cc1
inactive: GI50 (HT29 colon) 1.67 µM | GI50 (TK-10 renal) 6.55 µM | GI50 (T-47D breast) 2.4 µM | GI50 (BT-549 breast) 0.981 µM | GI50 (786-0 renal) 1.88 µM | GI50 (DU-145 prostate) 3.22 µM | GI50 (NCI-H460 lung) 2.82 µM | GI50 (IGROV1 ovarian) 3.3 µM | GI50 (SK-MEL-28 melanoma) 8.08 µM | GI50 (SNB-19 CNS) 1.14 µM | GI50 (A549 NSCLC) 3.48 µM | GI50 (U251 CNS) 1.7 µM | GI50 (HCT-116 colon) 0.531 µM | GI50 (NCI-H23 lung) 3.8 µM | GI50 (CAKI-1 renal) 3.05 µM | GI50 (HOP-62 NSCLC) 0.621 µM | GI50 (MOLT-4 leukemia) 0.435 µM | GI50 (NCI-H522 lung) 2.07 µM | GI50 (HOP-92 NSCLC) 0.48 µM | GI50 (MDA-MB-435) 1.36 µM | GI50 (HL-60(TB) leukemia) 0.756 µM | GI50 (MDA-MB-231 breast) 1.92 µM | GI50 (NCI/ADR-RES ovarian) 2.93 µM | GI50 (RXF 393 renal) 1.71 µM | GI50 (OVCAR-5 ovarian) 3.23 µM | GI50 (SW-620 colon) 2.45 µM | GI50 (UO-31 renal) 5.13 µM | GI50 (HCC-2998 colon) 3.2 µM | GI50 (SF-295 CNS) 2.85 µM | GI50 (OVCAR-4 ovarian) 4.47 µM | GI50 (COLO 205 colon) 2.21 µM | GI50 (NCI-H226 lung) 2.03 µM | GI50 (SF-268 CNS) 0.541 µM | GI50 (A498 renal) 1.22 µM | GI50 (SN12C renal) 0.811 µM | GI50 (SK-MEL-2 melanoma) 6.27 µM | GI50 (PC-3 prostate) 2.61 µM | GI50 (M14 melanoma) 3.02 µM | GI50 (OVCAR-8 ovarian) 3.38 µM | GI50 (ACHN renal) 3.59 µM | GI50 (UACC-257 melanoma) 10.7 µM | GI50 (SNB-75 CNS) 1.34 µM | GI50 (HCT-15 colon) 3.19 µM | GI50 (EKVX NSCLC) 4.39 µM | GI50 (OVCAR-3 ovarian) 1.59 µM | GI50 (HS 578T breast) 2.09 µM | GI50 (UACC-62 melanoma) 2.89 µM | GI50 (K-562 leukemia) 1.64 µM | GI50 (SR leukemia) 2.86 µM | GI50 (MALME-3M melanoma) 5.62 µM | GI50 (SK-OV-3 ovarian) 8.22 µM
22.8 µM: TGI (SR leukemia)
16.2 µM: TGI (CCRF-CEM leukemia)
18.2 µM: TGI (UACC-62 melanoma)
10.8 µM: TGI (LOX IMVI melanoma)
12.2 µM: TGI (BT-549 breast)
59.2 µM: TGI (MOLT-4 leukemia)
17.5 µM: TGI (OVCAR-3 ovarian)
68.6 µM: TGI (UACC-257 melanoma)
14.2 µM: TGI (NCI-H522 lung)
17.7 µM: TGI (NCI-H23 lung)
42.8 µM: TGI (SK-MEL-2 melanoma)
5.39 µM: TGI (A498 renal)
16.6 µM: TGI (SW-620 colon)
73.3 µM: TGI (CAKI-1 renal)
22 µM: TGI (IGROV1 ovarian) | TGI (SK-MEL-28 melanoma)
8.31 µM: TGI (MDA-MB-231 breast)
4.33 µM: TGI (MDA-MB-435)
14.6 µM: TGI (U251 CNS)
11.6 µM: TGI (HCT-15 colon)
22.7 µM: TGI (MALME-3M melanoma)
6.79 µM: TGI (RXF 393 renal)
5.64 µM: TGI (HL-60(TB) leukemia)
10.4 µM: TGI (HOP-92 NSCLC) | TGI (HCC-2998 colon)
active: GI50 (CCRF-CEM leukemia) 0.364 µM | GI50 (LOX IMVI melanoma) 0.386 µM | GI50 (MCF7 breast) 0.348 µM | GI50 (KM12 colon) 0.327 µM | GI50 (RPMI-8226 leukemia) 0.352 µM
5.1 µM: TGI (COLO 205 colon)
> 100 µM: TGI (HT29 colon) | TGI (TK-10 renal) | TGI (T-47D breast) | TGI (786-0 renal) | TGI (DU-145 prostate) | TGI (NCI-H460 lung) | TGI (SNB-19 CNS) | TGI (A549 NSCLC) | TGI (HCT-116 colon) | TGI (HOP-62 NSCLC) | TGI (NCI/ADR-RES ovarian) | TGI (OVCAR-5 ovarian) | TGI (UO-31 renal) | TGI (SF-295 CNS) | TGI (MCF7 breast) | TGI (OVCAR-4 ovarian) | TGI (SF-268 CNS) | TGI (KM12 colon) | TGI (SN12C renal) | TGI (PC-3 prostate) | TGI (M14 melanoma) | TGI (OVCAR-8 ovarian) | TGI (ACHN renal) | TGI (SNB-75 CNS) | TGI (EKVX NSCLC) | TGI (HS 578T breast) | TGI (K-562 leukemia) | TGI (SK-OV-3 ovarian)
5.21 µM: TGI (RPMI-8226 leukemia)
5.51 µM: TGI (NCI-H226 lung)
